Laboratory results as given in PubChem BioAssay AID330 (DTP/NCI, 2004).
Where “and” joins values, the source holds several entries; their conditions need not be identical. Identical values can stand only once. Toxic doses and inconclusive results are not listed. Rule for the calls: active = survival T/C of 150% or more; inactive = T/C below 125% in these data.

System: P388 leukemia ip, CD2F1 mice, survival T/C
Test: NCI In Vivo Anticancer Drug Screen. Data for tumor model P388 Leukemia (intraperitoneal) in CD2F1 (CDF1) mice
Settings: endpoint: median survival time, higher = longer survival
Summary of the method: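 Mice carrying the transplanted tumor received test compound or vehicle. Survival was recorded in each group, and the value is the treated-group measurement divided by that of the vehicle-treated control group.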

[1] = dose: 25.0 mg/kg/injection, schedule: Q04DX002 (ip), vehicle: distilled water + Tween-80
[2] = dose: 50.0 mg/kg/injection, schedule: Q04DX002 (ip), vehicle: distilled water + Tween-80
[3] = dose: 50.0 mg/kg/injection, schedule: Q01DX005 (ip), vehicle: saline with Tween-80
[4] = dose: 100.0 mg/kg/injection, schedule: Q01DX005 (ip), vehicle: saline with Tween-80
[5] = dose: 60.0 mg/kg/injection, schedule: Q01DX005 (ip), vehicle: saline with Tween-80
[6] = dose: 100.0 mg/kg/injection, schedule: Q01DX009 (ip), vehicle: Klucel (hydroxypropylcellulose) (HPC)
[7] = dose: 60.0 mg/kg/injection, schedule: Q01DX005 (ip), vehicle: Klucel (hydroxypropylcellulose) (HPC)
[8] = dose: 120.0 mg/kg/injection, schedule: Q01DX005 (ip), vehicle: Klucel (hydroxypropylcellulose) (HPC)
[9] = dose: 240.0 mg/kg/injection, schedule: Q01DX005 (ip), vehicle: Klucel (hydroxypropylcellulose) (HPC)
[10] = dose: 100.0 mg/kg/injection, schedule: Q04DX003 (ip), vehicle: saline with Tween-80
[11] = dose: 200.0 mg/kg/injection, schedule: Q04DX003 (ip), vehicle: saline with Tween-80
[12] = dose: 400.0 mg/kg/injection, schedule: Q04DX003 (ip), vehicle: saline with Tween-80
[13] = dose: 200.0 mg/kg/injection, schedule: Q01DX005 (ip), vehicle: saline with Tween-80
[14] = dose: 50.0 mg/kg/injection, schedule: Q01DX009 (ip), vehicle: saline
[15] = dose: 100.0 mg/kg/injection, schedule: Q01DX009 (ip), vehicle: saline
[16] = dose: 200.0 mg/kg/injection, schedule: Q01DX009 (ip), vehicle: saline
[17] = dose: 12.5 mg/kg/injection, schedule: Q01DX005 (ip), vehicle: Klucel (hydroxypropylcellulose) (HPC)
[18] = dose: 25.0 mg/kg/injection, schedule: Q01DX005 (ip), vehicle: Klucel (hydroxypropylcellulose) (HPC)
[19] = dose: 50.0 mg/kg/injection, schedule: Q01DX005 (ip), vehicle: Klucel (hydroxypropylcellulose) (HPC)

Measured: T/C

O=C1c2cccc(NCCCNCCO)c2C(=O)c2cccc(NCCCNCCO)c21
inactive: dose: 12.5 mg/kg/injection, schedule: Q04DX002 (ip), vehicle: distilled water + Tween-80 110 % of control | [1] 104 % of control | [2] 111 % of control

CN(Cc1ccc2nc(N)[nH]c(=O)c2c1)c1ccc(C(=O)NC(CCC(=O)O)C(=O)O)cc1 (centres undefined)
inactive: [3] 95 % of control | [4] 102 % of control

O=C1CCC(c2nc(=S)[nH][nH]2)N1Cc1ccccc1 (centres undefined)
inactive: [5] 101 % of control | dose: 120.0 mg/kg/injection, schedule: Q01DX005 (ip), vehicle: saline with Tween-80 102 % of control | dose: 240.0 mg/kg/injection, schedule: Q01DX005 (ip), vehicle: saline with Tween-80 101 % of control

COc1ccc(-c2csc(NC(=O)Nc3nc(-c4ccc(OC)cc4)cs3)n2)cc1
inactive: dose: 15.0 mg/kg/injection, schedule: Q01DX005 (ip), vehicle: saline with Tween-80 97 % of control | dose: 30.0 mg/kg/injection, schedule: Q01DX005 (ip), vehicle: saline with Tween-80 100 % of control | [5] 87 % of control and 91 % of control

C[Si](C)(C)OSc1ccccc1[N+](=O)[O-]
inactive: dose: 12.5 mg/kg/injection, schedule: Q01DX009 (ip), vehicle: Klucel (hydroxypropylcellulose) (HPC) 121 % of control | dose: 50.0 mg/kg/injection, schedule: Q01DX009 (ip), vehicle: saline with Tween-80 120 % of control | [6] 122 % of control | dose: 100.0 mg/kg/injection, schedule: Q01DX009 (ip), vehicle: saline with Tween-80 114 % of control | dose: 200.0 mg/kg/injection, schedule: Q01DX009 (ip), vehicle: saline with Tween-80 115 % of control

C1=CC(=CN2CCc3ccccc3C2)C=C1
inactive: [7] 101 % of control | [8] 102 % of control | [9] 103 % of control

CC(C)(C)C1(C#N)C(=O)N(c2ccc(Cl)cc2)C12c1ccccc1-c1ccccc12 (centres undefined)
inactive: dose: 50.0 mg/kg/injection, schedule: Q01DX009 (ip), vehicle: Klucel (hydroxypropylcellulose) (HPC) 99 % of control | [6] 118 % of control | dose: 200.0 mg/kg/injection, schedule: Q01DX009 (ip), vehicle: Klucel (hydroxypropylcellulose) (HPC) 105 % of control

CCOC(=O)C(=O)C1Cc2c(C)cc3cnc(OCC)cc3c2C1=O (centres undefined)
inactive: dose: 12.5 mg/kg/injection, schedule: Q01DX009 (ip), vehicle: distilled water + Tween-80 92 % of control | dose: 25.0 mg/kg/injection, schedule: Q01DX009 (ip), vehicle: distilled water + Tween-80 89 % of control | dose: 100.0 mg/kg/injection, schedule: Q01DX009 (ip), vehicle: distilled water + Tween-80 92 % of control | dose: 200.0 mg/kg/injection, schedule: Q01DX009 (ip), vehicle: distilled water + Tween-80 92 % of control

O=C1CCCCCC1c1ccccc1 (centres undefined)
inactive: [10] 104 % of control | [11] 104 % of control | [12] 109 % of control

COc1cc(=O)n(-c2ccccc2)nc1C#N
inactive: [3] 93 % of control | [4] 92 % of control | [13] 90 % of control

COc1ccc(CCNC(=O)C2CCCOC2C(Cl)Cl)cc1OC (centres undefined)
inactive: [3] 97 % of control | [4] 101 % of control | [13] 93 % of control

O=C1c2cccnc2C(=O)N1Cc1ccccc1
inactive: [10] 95 % of control | [11] 95 % of control | [12] 90 % of control

[Cu+2].[NH-]C(=O)NC([NH-])=O.[NH-]C(=O)NC([NH-])=O
inactive: dose: 6.25 mg/kg/injection, schedule: Q01DX005 (ip), vehicle: saline with Tween-80 99 % of control | dose: 12.5 mg/kg/injection, schedule: Q01DX005 (ip), vehicle: saline with Tween-80 99 % of control

BrCCC1CO1 (centres undefined)
inactive: [14] 98 % of control | [15] 100 % of control | [16] 117 % of control

CCC(=O)NS(=O)(=O)c1cccnc1Nc1c(Cl)cccc1Cl
inactive: [14] 96 % of control | [15] 96 % of control | [16] 100 % of control

O=C1c2ccccc2C(=O)c2c(Nc3cc4c5c(ccc6c7ccc8c9c(cc(Nc%10cccc%11c%10C(=O)c%10ccccc%10C%11=O)c(c3c56)c97)-c3ccccc3C8=O)C(=O)c3ccccc3-4)cccc21
inactive: [17] 106 % of control | [18] 101 % of control | [19] 98 % of control and 101 % of control | dose: 100.0 mg/kg/injection, schedule: Q01DX005 (ip), vehicle: Klucel (hydroxypropylcellulose) (HPC) 96 % of control

Nc1nc(-c2ccncc2)cc(-c2cc(-c3ccncc3)nc(N)n2)n1
inactive: dose: 60.0 mg/kg/injection, schedule: Q01DX005 (ip), vehicle: saline 102 % of control | dose: 120.0 mg/kg/injection, schedule: Q01DX005 (ip), vehicle: saline 96 % of control

CC(=O)Nc1ccc2nc3n(c(=O)c2c1)CCCC3
inactive: dose: 100.0 mg/kg/injection, schedule: Q01DX001 (ip), vehicle: Klucel (hydroxypropylcellulose) (HPC) 101 % of control | dose: 200.0 mg/kg/injection, schedule: Q01DX001 (ip), vehicle: Klucel (hydroxypropylcellulose) (HPC) 101 % of control | dose: 400.0 mg/kg/injection, schedule: Q01DX001 (ip), vehicle: Klucel (hydroxypropylcellulose) (HPC) 100 % of control

O=C(OC1(c2nccc3ccccc23)CCNCC1)c1ccccc1
inactive: [17] 111 % of control | [18] 109 % of control | [19] 103 % of control and 104 % of control

O=C(O)C(O)C(Cl)(Cl)Cl (centres undefined)
inactive: dose: 25.0 mg/kg/injection, schedule: Q01DX009 (ip), vehicle: saline 107 % of control | [14] 96 % of control | [15] 88 % of control | [16] 91 % of control

NCCN(Cc1ccccc1)C1CC1
inactive: [14] 98 % of control | [15] 91 % of control

CCOC(=O)c1ccc(NC(=O)Nc2cccc3c(O)cccc23)cc1
inactive: [7] 89 % of control | [8] 96 % of control | [9] 88 % of control

CCN(CC)CCCC(C)Nc1nc(-c2ccc(OC)cc2)nc2cc(Cl)ccc12 (centres undefined)
inactive: dose: 50.0 mg/kg/injection, schedule: Q01DX005 (ip), vehicle: saline 102 % of control | dose: 100.0 mg/kg/injection, schedule: Q01DX005 (ip), vehicle: saline 93 % of control

CC(CC=O)CCCC(C)(C)O (centres undefined)
inactive: [10] 100 % of control | [11] 100 % of control | [12] 100 % of control

N#Cc1c(-c2ccc(Cl)cc2)c(-c2ccc(Cl)cc2)nn(CCOC(=O)CCC(=O)OCCn2nc(-c3ccc(Cl)cc3)c(-c3ccc(Cl)cc3)c(C#N)c2=O)c1=O
inactive: [1] 95 % of control | [2] 89 % of control | dose: 100.0 mg/kg/injection, schedule: Q04DX002 (ip), vehicle: distilled water + Tween-80 91 % of control

CCOP(O)(=S)OCC.[Yb]
inactive: dose: 100.0 mg/kg/injection, schedule: Q04DX003 (ip), vehicle: Klucel (hydroxypropylcellulose) (HPC) 96 % of control | dose: 200.0 mg/kg/injection, schedule: Q04DX003 (ip), vehicle: Klucel (hydroxypropylcellulose) (HPC) 99 % of control | dose: 400.0 mg/kg/injection, schedule: Q04DX003 (ip), vehicle: Klucel (hydroxypropylcellulose) (HPC) 90 % of control

CCCCCCCCCCCCOC1C=C(C)C(=O)O1 (centres undefined)
inactive: dose: 100.0 mg/kg/injection, schedule: Q04DX002 (ip), vehicle: saline with Tween-80 100 % of control | dose: 200.0 mg/kg/injection, schedule: Q04DX002 (ip), vehicle: saline with Tween-80 101 % of control | dose: 400.0 mg/kg/injection, schedule: Q04DX002 (ip), vehicle: saline with Tween-80 100 % of control

CCN(CC)CCOC(=O)C(C1CCCCC1)C1(O)CCCCCC1 (centres undefined)
inactive: [3] 104 % of control | [4] 102 % of control | [13] 95 % of control
